Eleven molecules from ChEMBL document CHEMBL1201862, “PubChem BioAssay data set” (2004) can be followed below.

The structures appear in SMILES notation.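 The compound was tested at five concentrations on cells cultured in 96-well plates, with a 48-hour exposure period. Abbreviation: GI50, concentration required for 50% inhibition of growth.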 Calls of active or inactive are those of the source. Cut-off read from the data, not from the text of the source: active = GI50 up to about 1.1 µM and inactive = higher.

Assay in all cases: NCI anticancer screen, dose series, 48 h
In test [1] the test system is LOX IMVI.
Test [2] concerns M14.
Test [3] deals with NCI-H23.
The test system of test [4] is MCF7.
Test [5] deals with OVCAR-8.
The subject of test [6] is SF-539.
The subject of test [7] is SN12C.
In test [8] the test system is A498.
Test [9] deals with SK-OV-3.
The subject of test [10] is CAKI-1.
Test [11] has as its system BT-549.
Test [12] concerns HT-29.
In test [13] the test system is CCRF-CEM.
Test [14] concerns OVCAR-3.
The test system of test [15] is PC-3.
In test [16] the test system is MDA-MB-231.
The subject of test [17] is UACC-257.
Test [18] concerns ACHN.
The test system of test [19] is K562.

For the molecule `OC1CSc2nc3ccccc3n2C1` (stereo not given), the GI50 in test [1], in [2], in test [3], in test [4], in test [5] and in [6] was > 100 µM (inactive) throughout. Besides, the GI50 in test [7], in test [8], in test [9], in [10], in [11] and in test [12] was > 100 µM (inactive) throughout. In addition, the GI50 in test [13], in test [14], in test [15], in [16], in test [17] and in [18] was > 100 µM (inactive) in each case. Moreover, the GI50 in test [19] was > 100 µM (inactive).
As for `COc1ccc(OC)c(/C=C/c2ccnc3ccccc23)c1`, the GI50 was 0.365 µM (active) in test [1]; 0.375 µM (active) in test [2]; 0.346 µM (active) in test [3]; 0.851 µM (active) in test [4]; 0.191 µM (active) in test [5]; 0.21 µM (active) in [6]. Besides, the GI50 is 0.619 µM (active) in test [7]; 0.452 µM (active) in [8]; 0.403 µM (active) in test [9]; 1.28 µM (inactive) in [10]; 0.568 µM (active) in test [11]; 0.321 µM (active) in test [12]. Further, the GI50 in [13] is 0.337 µM (active); in [14], 0.269 µM (active); in test [15] it was 0.514 µM (active); in [16] it was 0.565 µM (active); in test [17] it was 0.513 µM (active); in test [18] it was 0.533 µM (active). Moreover, in [19], the GI50 is 0.191 µM (active).
Turning to `COc1cc(C2c3cc4c(cc3OC(Nc3ccc(C(=O)O)cc3)C2C)OCO4)cc(OC)c1OC` (stereo not given), the GI50 in test [1] is 0.532 µM (active); in [2], 0.301 µM (active); in [3], 0.454 µM (active); in test [4] it was 0.232 µM (active); in test [5], 0.422 µM (active); in test [6] it was 0.218 µM (active). For the same molecule, the GI50 was 0.991 µM (active) in [7]; 0.714 µM (active) in test [8]; 0.362 µM (active) in test [9]; 0.204 µM (active) in [10]; 0.467 µM (active) in test [11]; 0.329 µM (active) in test [12]. The GI50 was 0.282 µM (active) in test [13]; 0.285 µM (active) in test [14]; 0.253 µM (active) in [15]; 0.189 µM (active) in test [16]; > 40.3 µM (inactive) in test [17]; 1.38 µM (inactive) in test [18]. For the same molecule, the GI50 in test [19] was 0.3 µM (active).
With `CC(C)CCCC(C)[C@H]1CC[C@H]2N/C(=N/Cc3ccccc3)CCC[C@]12C` (stereo not given in full), the GI50 is 1.92 µM (inactive) in [1]; 2.32 µM (inactive) in [2]; 2.23 µM (inactive) in test [3]; 1.71 µM (inactive) in test [4]; 1.67 µM (inactive) in test [5]; 1.83 µM (inactive) in [6]. In addition, the GI50 in [7] was 1.84 µM (inactive); in test [8] it was 1.95 µM (inactive); in test [9], 5.31 µM (inactive); in test [10], 2.25 µM (inactive); in [11], 2.72 µM (inactive); in test [12], 1.28 µM (inactive). Also, the GI50 was 2.13 µM (inactive) in test [13]; 2.07 µM (inactive) in [14]; 1.81 µM (inactive) in [15]; 2.05 µM (inactive) in test [16]; 2.42 µM (inactive) in test [17]; 1.26 µM (inactive) in test [19].
Consider `Cc1nn(C(=O)Cc2ccccc2)c2c1C(c1ccc(N(C)C)cc1)SC(=N)N2` (stereo not given), for which the GI50 was > 100 µM (inactive) in [1]; > 100 µM (inactive) in test [2]; > 100 µM (inactive) in test [3]; > 100 µM (inactive) in [4]; > 100 µM (inactive) in test [5]; 46.1 µM (inactive) in test [6]. Further, the GI50 in [7] is > 100 µM (inactive); in test [8], > 100 µM (inactive); in [9], > 100 µM (inactive); in test [10], > 100 µM (inactive); in test [11], 51.5 µM (inactive); in [12], > 100 µM (inactive). In addition, the GI50 in test [13], in test [15], in test [16], in test [17] and in test [18] was > 100 µM (inactive) throughout.
`CCOC(=O)/C(=C/Nc1c(C)n(C)n(-c2ccccc2)c1=O)C(C)=O`: the GI50 in [1], in test [2], in [3], in test [4], in test [5] and in [6] was > 100 µM (inactive) throughout. The GI50 in test [7], in test [8], in test [9], in test [10], in test [11] and in test [13] was > 100 µM (inactive) each time. The GI50 in [14], in [15], in test [16], in [17], in test [18] and in test [19] was > 100 µM (inactive) each time.
Turning to `Cc1cccc2c(N)c3cccc(C(=O)NCC[N+](C)(C)Cc4ccc([N+](=O)[O-])n4C)c3nc12`, the GI50 in test [1] is 18 µM (inactive); in test [2], 23.3 µM (inactive); in test [3], 13.2 µM (inactive); in test [4], 8.65 µM (inactive); in [5] it was 18.7 µM (inactive); in test [6], 13.5 µM (inactive). In addition, the GI50 in test [7] is 3.07 µM (inactive); in test [8], 10.4 µM (inactive); in test [9], 25.1 µM (inactive); in [10], 7.1 µM (inactive); in [11], > 42.6 µM (inactive); in test [12], 9.33 µM (inactive). The GI50 was 3.7 µM (inactive) in [13]; 24.7 µM (inactive) in test [14]; 24 µM (inactive) in [15]; 38.6 µM (inactive) in test [16]; 53.5 µM (inactive) in [17]; 10.1 µM (inactive) in test [18]. Besides, in [19], the GI50 is 11.5 µM (inactive).
For the molecule `COc1ccc(N2C(=O)CSC2c2cc3cc(Br)ccc3nc2Cl)cc1` (stereo not given), the GI50 in test [1] is 37.6 µM (inactive); in test [2] it was 38.5 µM (inactive); in [3], > 50 µM (inactive); in [4], 31.7 µM (inactive); in test [5] it was > 50 µM (inactive); in test [6], > 50 µM (inactive). For the same molecule, the GI50 is > 50 µM (inactive) in [7]; > 50 µM (inactive) in [8]; > 50 µM (inactive) in [9]; 27.5 µM (inactive) in test [10]; > 50 µM (inactive) in [11]; > 50 µM (inactive) in test [12]. Also, the GI50 is 31.6 µM (inactive) in [13]; > 50 µM (inactive) in [14]; > 50 µM (inactive) in [15]; > 50 µM (inactive) in test [16]; 17.9 µM (inactive) in [17]; 19 µM (inactive) in test [18]. Further, the GI50 in test [19] is 14.1 µM (inactive).
`NS(=O)(=O)c1ccc(NC(=S)NC(=O)Nc2ccc(Cl)c(Cl)c2)cc1`: the GI50 in [1] was 6.17 µM (inactive); in test [2] it was 7.33 µM (inactive); in test [3], 16 µM (inactive); in [4], 15 µM (inactive); in [5] it was 18.4 µM (inactive); in test [6] it was 18.2 µM (inactive). Also, the GI50 in [7] is 15.8 µM (inactive); in test [8] it was 1.07 µM (active); in test [9], 18.5 µM (inactive); in test [10], 18.7 µM (inactive); in test [11], 15.4 µM (inactive); in [12] it was 11.5 µM (inactive). The GI50 in [13] is 16.5 µM (inactive); in test [14], 18.5 µM (inactive); in test [15], 12.9 µM (inactive); in test [16] it was 1.06 µM (active); in test [17], 17.9 µM (inactive); in test [18], 11.5 µM (inactive). In addition, the GI50 in test [19] was 4.55 µM (inactive).
Consider `CNC(=O)C(C)NC(=O)C(Cc1ccccc1)NC(=O)OC(C)(C)C` (stereo not given), for which the GI50 in [1], in test [2], in test [3], in test [4], in [5] and in [6] was > 100 µM (inactive) each time. In addition, the GI50 in test [7], in test [8], in [9], in [10], in test [11] and in test [12] was > 100 µM (inactive) throughout. For the same molecule, the GI50 in test [13], in [14], in test [15], in test [16], in test [17] and in test [18] was > 100 µM (inactive) in each case. Further, the GI50 in test [19] is > 100 µM (inactive).
On to `NC1=NCC(CN2CCCC2)O1` (stereo not given), for which the GI50 in test [1], in test [2], in test [3], in test [4], in [5] and in [6] was > 100 µM (inactive) in each case. Besides, the GI50 in test [7], in test [8], in test [9], in test [10], in test [11] and in test [12] was > 100 µM (inactive) each time. The GI50 in [13], in [14], in test [15], in test [16], in test [17] and in [18] was > 100 µM (inactive) each time. The GI50 in test [19] is > 100 µM (inactive).
